How the values were obtained:
Test in all cases: relative viability (nuclei count vs DMSO), 5 days (fraction); higher = more cells survive
[1] = compound: NCC(=O)Nc1ccc(-n2nc(C(F)(F)F)cc2-c2ccc3c(ccc4ccccc43)c2)cc1 + N=C(N)NC(=N)NCCc1ccccc1 [Phenformin] (partner 250 µM)
Summary of the method: (§1)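 Values are medians from duplicate plates. Each reflects relative viability, defined as the nuclei count of treated wells over that of vehicle wells. Lung cancer cell lines in 1536-well plates were pin-tool dosed one day after seeding with one drug alone or with a fixed anchor-drug dose plus five library-drug doses (not always all listed) in √10 steps, then fixed, stained and imaged at 4× after 5 days.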

[2] = compound: C1CSC2=C(C(=O)N1)SC3=C2C=C(C=C3)O [kb NB 142-70] + C[C@@H](Oc1cc(-c2cnn(C3CCNCC3)c2)cnc1N)c1c(Cl)ccc(F)c1Cl [Crizotinib] (partner 1 µM)
Summary of the method: as §1

[3] = compound: NCC(=O)Nc1ccc(-n2nc(C(F)(F)F)cc2-c2ccc3c(ccc4ccccc43)c2)cc1 + CC(C)C[C@H](NC(=O)[C@H](Cc1ccccc1)NC(=O)c1cnccn1)B(O)O [Bortezomib] (partner 0.002 µM)
Summary of the method: as §1

[4] = compound: C1CSC2=C(C(=O)N1)SC3=C2C=C(C=C3)O [kb NB 142-70] + C[C@]1(O)C[C@@H](c2nc(-c3ccc4ccc(-c5ccccc5)nc4c3)c3c(N)nccn32)C1 [Linsitinib] (partner 1 µM)
Summary of the method: as §1

UMC-11 showed a relative viability ([1]; first compound 0.02 µM) of 0.292, a relative viability ([1]; first compound 0.06325 µM) of 0.337 and a relative viability ([1]; first compound 0.2 µM) of 0.334. It also gave a relative viability ([1]; first compound 0.6325 µM) of 0.319, a relative viability ([1]; first compound 2 µM) of 0.335 and a relative viability ([2]; first compound 0.1 µM) of 0.698. The relative viability ([2]; first compound 1 µM) was 0.601, the relative viability ([2]; first compound 3.162 µM) was 0.277 and the relative viability ([3]; first compound 0.02 µM) was 0.831. It also gave a relative viability ([3]; first compound 0.06325 µM) of 0.762, a relative viability ([3]; first compound 0.2 µM) of 0.693 and a relative viability ([3]; first compound 0.6325 µM) of 0.658. It also gave a relative viability ([3]; first compound 2 µM) of 0.674, a relative viability ([4]; first compound 0.1 µM) of 1.04 and a relative viability ([4]; first compound 1 µM) of 0.984. The relative viability ([4]; first compound 3.162 µM) was 0.599.

— the supplement of paper PMC10307832
